Measurements reported in PMC3815326 (Microbial biotechnology, 2012).
“Also recorded” adds a separate entry of the source. Like-named read-outs stand apart in the source and are kept apart here.

Assays:
TmoS [1] = molecular target: T1, TmoS (Ectopseudomonas mendocina, UniProt Q8KIY1); assay type: biochemical, Pseudomonas mendocina KR1
TmoS [2] = molecular target: T1, TmoS; test: Isothermal titration calorimetry of purified TmoS with effector molecules; assay type: binding, Pseudomonas mendocina KR1; conditions: for TΔS / affinity / binding to TmoS, in words / ΔH: TmoS
TodS = conditions: agonist / antagonist classification, ref Busch et al., 2007, cited from earlier work
TmoS [3] = test: Isothermal titration calorimetry of purified TmoS with effector molecules; assay type: binding, Pseudomonas mendocina KR1; conditions: TodS values from Busch et al., 2007
T4MO = T4MO substrate; ref Mitchell et al., 2002; cited from earlier work
CitA = conditions: read-out: KD for CitA; determined by ITC; ref Kaspar et al., 1999; cited from earlier work
[4] = 100 µM effector (saturating), 30 min, 10 µM TmoS, 4°C
[5] = 100 µM effector, time course (Fig. 4B and C)
[6] = ITC, typically 10 µM TmoS titrated with 500 µM effector, pH 7.5

T1 sequence (Q8KIY1 whole entry): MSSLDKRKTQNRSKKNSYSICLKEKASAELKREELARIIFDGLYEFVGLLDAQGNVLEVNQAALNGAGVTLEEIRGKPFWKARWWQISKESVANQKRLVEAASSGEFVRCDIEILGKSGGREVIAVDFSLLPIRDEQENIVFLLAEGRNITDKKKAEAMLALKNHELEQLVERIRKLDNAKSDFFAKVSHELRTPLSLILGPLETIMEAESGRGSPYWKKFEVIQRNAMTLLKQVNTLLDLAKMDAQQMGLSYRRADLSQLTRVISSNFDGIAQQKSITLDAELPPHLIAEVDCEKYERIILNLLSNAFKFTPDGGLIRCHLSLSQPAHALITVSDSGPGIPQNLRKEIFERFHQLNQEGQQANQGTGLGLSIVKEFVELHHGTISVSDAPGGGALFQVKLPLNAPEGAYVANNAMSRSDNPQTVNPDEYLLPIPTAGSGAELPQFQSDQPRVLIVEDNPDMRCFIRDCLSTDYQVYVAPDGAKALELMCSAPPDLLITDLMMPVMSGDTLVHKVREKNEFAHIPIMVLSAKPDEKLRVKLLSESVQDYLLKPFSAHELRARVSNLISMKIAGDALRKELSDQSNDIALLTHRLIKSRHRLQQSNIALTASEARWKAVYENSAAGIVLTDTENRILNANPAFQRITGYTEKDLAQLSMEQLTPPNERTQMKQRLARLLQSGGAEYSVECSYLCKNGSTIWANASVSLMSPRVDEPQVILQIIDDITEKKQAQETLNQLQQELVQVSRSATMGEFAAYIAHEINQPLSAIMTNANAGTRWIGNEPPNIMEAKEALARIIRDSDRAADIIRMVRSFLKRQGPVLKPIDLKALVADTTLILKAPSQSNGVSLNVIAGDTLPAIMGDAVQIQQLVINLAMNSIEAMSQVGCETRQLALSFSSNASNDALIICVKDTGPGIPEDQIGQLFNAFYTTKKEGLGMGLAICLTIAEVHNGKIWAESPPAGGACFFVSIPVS

| Compound | Kd (TmoS [2]) [nM] | TΔS (TmoS [2]; ITC) | affinity / binding to TmoS, in words (TmoS [2]; ITC) | ΔH (TmoS [2]; ITC) | Effect on TodS (TodS) | affinity for TmoS relative to TodS (TmoS [3]) | further results |
| --- | --- | --- | --- | --- | --- | --- | --- |
| Cc1ccc(C)c(C)c1 [1,2,4 Trimethylbenzene] | 3460 ± 500 | 5.6 ± 0.2 kcal/mol | tight binding | -1.5 ± 0.2 kcal/mol | Antagonist |  | TmoS phosphorylation state in presence of effector versus control (TmoS [1]): very similar to the control; also recorded: failed to increase |
| c1ccccc1 [Benzene] | 170 | 3.6 ± 0.1 kcal/mol | nanomolar range | -5.3 ± 0.1 kcal/mol | Agonist | around 4.5 times | TmoS phosphorylation state in presence of effector versus control (TmoS [1]): increased phosphorylation; stimulation of TmoS autokinase activity in kinetics experiment (TmoS [1]): significantly inferior |
| Clc1ccccc1 [Chlorobenzene] | 1250 ± 70 |  |  | -6.9 ± 0.3 kcal/mol | Agonist | comparable | TmoS phosphorylation state in presence of effector versus control (TmoS [1]): increased phosphorylation |
| CCc1ccccc1 [Ethylbenzene] |  | 4.1 ± 0.1 kcal/mol |  | -3.5 ± 0.1 kcal/mol | Agonist | tighter | TmoS phosphorylation state in presence of effector versus control (TmoS [1]; [4]): increased phosphorylation; Kd (TmoS [2]; KD, ITC, typically 10 µM TmoS titrated with 500 µM effector, pH 7.5): 1560 ± 100 nM |
| O=[N+]([O-])c1ccccc1 [Nitrobenzene] | 230 ± 30 | 4.5 ± 0.1 kcal/mol | nanomolar range | -4.1 ± 0.1 kcal/mol | Agonist | 29 times |  |
| C=Cc1ccccc1 [Styrene] | 810 ± 100 | 3.3 ± 0.3 kcal/mol | nanomolar range | -4.8 ± 0.3 kcal/mol | Agonist | comparable |  |
| Cc1ccccc1 [Toluene] |  | 2.4 ± 0.1 kcal/mol |  | -6.5 ± 0.1 kcal/mol |  |  | TmoS phosphorylation state in presence of effector versus control (TmoS [1]; [4]): most pronounced increase; TmoS phosphorylation state in presence of effector versus control (TmoS [1]; 100 µM effector (saturating), 30 min, 10 µM TmoS, 4°C, listed as toluene): increased phosphorylation; time of maximal TmoS phosphorylation (TmoS [1]; 100 µM effector, kinetics of autophosphorylation): 40 min; stimulation of TmoS autokinase activity in kinetics experiment (TmoS [1]; [5]): most pronounced increase; Km (T4MO): 4 µM |
| O=C(O)CC(O)(CC(=O)O)C(=O)O [citrate] |  |  |  |  |  |  | Kd (CitA): 5500 nM |
| C1CCCCC1 [cyclohexane] |  | No binding | failed to bind | No binding | No binding |  | KA (TmoS [2]; [6]): No binding; KD (TmoS [2]; [6]): No binding |
| Cc1cccc(Cl)c1 [m‐Chlorotoluene] | 2070 ± 600 | 1.5 ± 0.8 kcal/mol |  | -5.9 ± 0.9 kcal/mol | Agonist |  |  |
| Cc1cccc(C)c1 [m‐xylene] | 710 ± 90 | 1.1 ± 0.6 kcal/mol |  |  | Agonist |  |  |
| Cc1ccccc1Cl [o‐Chlorotoluene] |  | 2.4 ± 0.9 kcal/mol |  | -5.1 ± 0.9 kcal/mol | Antagonist |  | TmoS phosphorylation state in presence of effector versus control (TmoS [1]; [4]): very similar to the control; also recorded: failed to increase; also recorded: did not trigger an increase; Kd (TmoS [2]; [6]): 2140 ± 400 nM; Effect on TodS (TodS; listed as o‐chlorotoluene): antagonists |
| Cc1ccccc1C [o‐xylene] | 290 ± 10 |  |  | -8.9 ± 0.1 kcal/mol | Antagonist |  | TmoS phosphorylation state in presence of effector versus control (TmoS [1]; [4]): very similar to the control; also recorded: failed to increase; also recorded: did not trigger an increase; Effect on TodS (TodS; listed as o‐ xylene): antagonists |
| Cc1ccc(Cl)cc1 [p‐Chlorotoluene] |  | 5.3 ± 0.1 kcal/mol | nanomolar range | -2.7 ± 0.1 kcal/mol | Agonist |  |  |
| Cc1ccc(C)cc1 [p‐xylene] | 460 ± 50 | 4.9 ± 0.29 kcal/mol |  | -3.4 ± 0.3 kcal/mol | Agonist |  |  |
| chlorotoluene |  |  |  |  |  |  | stimulation of TmoS autokinase activity in kinetics experiment (TmoS [1]; [5]): significantly inferior |
